In a melting point compilation (Tetko et al.; mined from patent text by program, amines drawn as free bases though some values may be those of a salt) one finds melting point data, which are given here for 90 compounds.

On to `O=C1NCc2cnc(Nc3ccc(N4CCCCC4CO)cc3)nc2N1C1CCCC1` (stereo not given), for which the melting point (in general, the temperature of the solid-liquid transition) fell in the range of 220 to 221 °C.
Then `Cc1ccc2c(n1)sc1c(O)cnnc12`, with over 300 °C.
Under `CCCn1c(=O)cc(Cl)n(CC#N)c1=O` stands 83 to 84 °C.
Then `O=C(Cn1c(-c2ccc(Cl)cc2)nc2cccnc21)N1CCOCC1`, with 213 to 216 °C; and `CCOC(=O)c1cc2cc(-c3ccc(Cl)cc3)ccc2o1`, with 108 to 110 °C.
In turn, `CCCCCCNC(=O)Oc1cccc(NC(=O)CC(C)=O)c1` showed a melting point of 125 °C.
Under `COc1ccc(-c2nc(-c3ccccc3)nc(-c3ccccc3)n2)c(O)c1` stands 211 to 212 °C.
The compound `N#Cc1c(N)cccc1Sc1ccccc1` came in with a melting point of 73 to 77 °C.
Then `Cc1ccc(S(=O)(=O)N2[C@H](CCCc3nc(C)no3)CC[C@@H]2c2ccc(F)cc2)cc1` (racemic), with 91 °C.
For `CCOC(=O)c1cn(CC)c2nc(N3CCN(C)CC3)ccc2c1=O`, the melting point came out at 130 °C.
Then `CNNc1ccc(-c2ccc3c(=O)c(C(=O)O)cn(C4CC4)c3c2C)cn1`, with 246 °C; and `O=c1cc(N2CCCC(CO)C2)oc2c1ccc1ccccc12` (stereo not given), with 209 to 210 °C; and `C[Si](O)(Cn1cncn1)c1ccc(-c2ccccc2)cc1` (stereo not given), with 97 to 99 °C.
Under `CCC(=O)Nc1ccc(OCc2nc3ccccc3s2)cc1` stands 182 °C; under `O=C1c2cc(Cl)ccc2OCC1n1ccnc1` (stereo not given), 123 to 125 °C.
Then `Cc1cccc2c1C(=O)C1(CCOC1=O)S2` (stereo not given), with 106 °C; and `Cc1ccccc1N(CC(=O)N(C)c1ccccc1)C(=O)CN1C(=O)c2ccccc2C1=O`, with 120 °C; and `CC1CC2C3CCC4=CC(=O)C=CC4(C)C3=CCC2(C)C1C(=O)CN1CCN(c2cc(NC3CCCC3)nc(NC3CCCC3)n2)CC1` (stereo not given), with 180 to 185 °C.
Consider `COCN(c1cccc2cc(C(N)=O)n(COC)c12)S(=O)(=O)c1cccs1`, for which the melting point fell in the range of 203 to 204 °C.
For `N=C1C=CC=CC1Cc1cccc2c1NCC2` (stereo not given), the melting point fell in the range of 62 to 63 °C.
Under `COc1ccc(Cn2c(=O)c3c(Cl)cc(Cl)cc3n(Cc3ccccc3)c2=O)cc1` stands 138 to 143 °C; under `CC(=O)Nc1nc2c(Oc3cc(-c4ccc(C(F)(F)F)cc4OCc4ccccc4)ncn3)cccc2s1`, 201 to 203 °C.
Then `O=CNCC1CCc2ccccc2N(C=O)C1` (stereo not given), with 128 °C.
The compound `CCOCn1c(Oc2cc(C)cc(C)c2)c(CC)c(=O)[nH]c1=O` showed a melting point of 139 to 140 °C.
Under `C=C(F)CCc1cccc(C2(c3ccc(OC(F)F)cc3)N=C(N)N(C)C2=O)c1` (stereo not given) stands 58 to 60 °C; under `O=C(Nc1ccc2ccc(-c3ccc(Cl)cc3)nc2n1)c1cccc(Br)c1`, 220 to 224 °C; under `Cc1cc(C=Cc2ccccc2OCC(O)CNC(C)(C)C)on1` (stereo not given), 83 to 85 °C.
Then `O=C1NC(=O)[C@@]2(C[C@@H](C(=O)NO)Oc3ccc(F)cc32)N1`, with 178 °C; and `CCOC(=O)C(=O)C(C#N)c1cccc(Oc2ccccc2)c1` (stereo not given), with 105 to 109 °C.
`CS(=O)(=O)N(c1ccccc1)C1CCN(Cc2ccccc2)CC1` registered a melting point of 125 °C.
Under `CC(C)OCc1cc(O)cc2cc(-c3ccc(O)cc3)oc12` stands 195 to 197 °C; under `O=c1nc(-c2ccccn2)sc2ncccc12`, 235 °C.
Then `O=C(c1cccc(-c2cc3ccccc3[nH]2)c1)c1cc2ccccc2[nH]1`, with 206 to 207 °C; and `CS(=O)(=O)c1nnc(-c2ccccc2Nc2cccc(C(F)(F)F)c2)o1`, with 144 to 148 °C; and `Cc1cnc(NS(=O)(=O)c2cccc(Cl)c2Cl)c(OCc2ccco2)n1`, with 127 to 129 °C.
As to `[N-]=[N+]=Nc1ccc(CBr)cc1Cl`, the melting point was 75 to 77 °C.
Then `CCCCCC(=O)NS(=O)(=O)CCc1cc(OC(C)C)nn1Cc1ccc(Cl)cc1Cl`, with 107 to 108 °C.
Under `CCCCCCCCCCOc1cc(OCCCCCCCCCC)cc(N(CC(=O)O)CC(=O)OC)c1` stands 61 to 62 °C; under `Cc1cc(C23CC4CC(CC(C4)C2)C3)ccc1NC(=O)c1cc([N+](=O)[O-])ccc1Br`, 229 °C.
Then `C=C(C)C(=O)OCCCc1ccc2c(c1)N(C(C)(C)C)N(O)N2`, with 62 to 63.2 °C.
`O=C1c2ccccc2-n2cnc(-c3cccc(Cl)c3)c2[C@@H]2CCCN12` registered a melting point of 242 to 243 °C.
Under `OCCNc1nc(NCc2ccccc2)c2ncc(Cl)cc2n1` stands 106 to 107 °C; under `CC(=O)Oc1cn(C(C)=O)c2ccc(F)c(Cl)c12`, 168 to 169 °C.
Then `CC(C)(C)NC(=O)CN(C(=O)CN1C(=O)c2ccccc2C1=O)c1ccccc1`, with 166 °C.
For `COc1cc(F)ccc1CCN1c2nc(-c3ccncn3)cc(=O)n2CCC1C` (stereo not given), the melting point fell in the range of 148 to 150 °C.
Under `Cn1cc(C(F)(F)F)c(C(=O)O)c1F` stands 190 to 191 °C; under `CC(C)(C)c1ccc(Cn2ccc3cc(-c4ccc(C(C)(C)C)cc4)ccc32)cc1`, 167 to 168 °C; under `CC1(C)COC(c2ccc(Br)cc2)OC1`, 62 to 64 °C.
Under `COc1c(C)cc(C(=O)c2ccc([N+](=O)[O-])cc2)cc1C` stands 131 to 132 °C; under `O=[N+]([O-])c1cnc(-c2nc3ccccc3[nH]2)n1CCO`, 217 to 219 °C.
Then `ON=CN1CCCC1C1=Nc2ccc(Cl)cc2C(c2ccccc2F)=NC1` (stereo not given), with 175 to 178 °C; and `COc1nc(OC)c(C(C)C)c(C(C#N)c2cc(Cl)cc(Cl)c2)n1` (stereo not given), with 135 to 136 °C.
`COc1cc2c(c3c1OC(C)(C)C3)C(c1cccc(NC(=O)c3ccc(Cl)nc3Cl)c1)=NC(C)(C)C2` returned a melting point of 130 to 132 °C.
Under `Cn1nc(-c2c(Cl)cncc2Cl)nc1Cc1ccncc1` stands 130 to 132 °C; under `CC(=O)N(c1ccccc1)c1ccc(C(=O)CBr)cc1`, 152 to 153 °C; under `CON=C(C#CCCl)C(=O)OC`, 64 to 67 °C.
Under `CCCC1=C(C#N)C(c2cccc(C)c2[N+](=O)[O-])c2c[nH]nc2N1` (stereo not given) stands 250 °C; under `COc1ccc(N(C)c2ncnc3occ(C)c23)cc1`, 84 to 85.6 °C; under `NC(=O)N1CC(Oc2ccc(Cl)cc2Cl)C1`, 169 to 170 °C.
Regarding `CC(=O)OCCC1=CCC2C3CCC4=CCC=CC4(C)C3C(O)CC12C` (stereo not given), the melting point is 203 to 205 °C.
Under `N#Cc1cc(C(F)(F)F)[nH]c1-c1ccc(Cl)c(Cl)c1` stands 230 to 232 °C.
Under `CC(C)S(=O)(=O)c1cnc(Cl)c(Cl)c1` stands 146 °C; under `CCc1cc2c(-c3ccccc3Cl)c(NC(=O)Nc3ccc(F)cc3F)cnc2s1`, 217 to 218 °C; under `CCOC(=O)C1CCN(c2cc(-c3ccc(Cl)cc3)nc3ccccc23)CC1`, 124 to 126 °C.
Consider `CC(C)(C)OC(=O)NC(=Cc1ncoc1C(C)(C)C)C(=O)OC(C)(C)C`, for which the melting point lay in the range of 170 to 172 °C.
Under `CCC1(CC)C=C(N2CCSC2=NC#N)c2cc(C#N)ccc2O1` stands 251 to 252 °C; under `CC(C)COC(=O)Nc1nc(N2CC=CCC2)nc2nc(=O)on12`, 210 to 215 °C.
Then `O=C1C2CCCC2Nc2ccccc2N1Cc1ccccc1` (stereo not given), with 172 to 173 °C; and `CCOC(=O)C(C)Oc1ncn(-c2ccc(Br)cc2)n1` (stereo not given), with 64 to 66 °C.
Then `CC1=C(C)CCCCCC1`, with 63 to 64 °C; and `O=C(O)CCC1(CCC(=O)O)CCC(=O)N1`, with 162 to 164 °C.
`COc1c(C)cc(-c2cc(-c3ccncc3)c(N3CCOCC3)s2)nc1C` had a melting point of 129 °C.
Then `O=C1c2ccc([N+](=O)[O-])cc2C(=O)N1C1CCN(C2CCCCC2)CC1`, with 265 to 270 °C.
`c1ccc(-c2cc3nnc(-c4ccccc4)n3nc2OCc2cn[nH]n2)cc1` had a melting point of 208 to 220 °C.
Then `Cn1cnc(S(=O)(=O)Nc2cc(C(c3cc(F)ccc3F)S(=O)(=O)c3ccc(Cl)cc3)c(Cl)cn2)c1` (stereo not given), with 294 to 296 °C.
Then `COc1cc2c(s1)c(=O)c(SC)cn2C`, with 185 to 187 °C.
Then `OCc1cc2c3ccccc3n(Cc3ccccc3)c2cn1`, with 120 to 122 °C.
`CCOC(=O)C(NC=O)=C(c1ccc(F)cc1)c1ccc(F)cc1` showed a melting point of 174 to 176 °C.
Consider `O=C1NC(=O)C(S(=O)(=O)c2ccc(Cl)cc2)S1` (stereo not given), for which the melting point lay in the range of 143 to 144 °C.
Compound `O=C(O)CCC(=O)N1CCCc2cc(S(=O)(=O)N3CCN(c4cccc(Cl)c4)CC3)ccc21` displayed a melting point of 135 to 136 °C.
Then `Cc1cc(CCCCCCC(OS(=O)(=O)O)c2nnnn2C)on1` (stereo not given), with 58 to 60 °C; and `CC1(c2ccc3c(c2)C(c2ccccc2)=NCC(=C[N+](=O)[O-])N3)OCCO1`, with 158 to 161 °C.
In turn, `COc1cccc2c1CC(C(=O)NCCOc1ccc(C(=O)OC(C)(C)C)cc1)N2S(=O)(=O)c1ccc(-c2ccc(F)cc2Cl)cc1` (stereo not given) gave a melting point of 79 to 85 °C.
`Cc1cn(-c2cc(C)c(N)c(C#N)c2)c(C)n1` registered a melting point of 214 to 217 °C.
Under `O=C(Cl)c1c(Br)c(Br)c([N+](=O)[O-])c2c1OCCO2` stands 215 °C.
In the case of `CC(C)Cc1ccc(C(=O)O)cc1C#N`, the melting point worked out at 118 °C.
Under `CS(=O)(=O)c1ccc2c(c1)C(=O)CC1(CCN(C(=O)c3ccccc3)CC1)O2` stands 155 to 157 °C.
Compound `COc1ccc(C2=NN(CCCOc3ccccc3)C(=O)[C@H]3CCCC[C@@H]23)cc1OC` (relative stereo) yielded a melting point of 78 to 81 °C.
Then `CCCCCCNC(=O)C=C(C)C=CC=C(C)C=Cc1c(C)cc(OC)c(C)c1C`, with 157 to 158 °C.
Under `COCc1nnc(-c2cccnc2)n1-c1c(Cl)c(C)cc2[nH]c(=O)c(=O)[nH]c12` stands 229 to 231 °C.
